PMC6541264, “Molecular mechanisms involved in drug-induced liver injury caused by urate-lowering Chinese herbs: A network pharmacology study and biology experiments” (PLoS ONE, 2019)

Assays:
Type in all cases: cell-based, human
[1] = test system: p38α; experiment: Western blot, expression of p-p38α/p38α in L-02 cells, without and with inhibitor SB203580
From the text: After the examination of biochemical indicators for hepatotoxicity in the cell, the expression of crucial liver injury protein in L02 cell lines among different groups was compared by Western blot analysis. Briefly, the proteins from different groups were harvested and lysed using lysis buffer (Sigma-Aldrich) containing a proteinase inhibitor cocktail (Sigma-Aldrich), the equal amounts of protein were separated by electrophoresis on a pre-cast 10% SDS-polyacrylamide gel (Bio-Rad, Hercules, CA) and transferred to polyvinylidene difluoride membranes (Millipore, Bedford, MA). Next, the membrane was blocked in TBST-T containing 5% skim milk for 2 h at room temperature and probed with anti-beta-catenin, and incubated overnight with the indicated primary antibody, followed by incubation with the secondary antibodies at room temperature for another 2 h. Finally, all the immune blots were visualized by enhanced chemiluminescence (Pierce Biotechnology, Inc., Rockford, IL, USA) and western blots were performed at least three times.
According to the results of network pharmacology, we examined the expression levels of p38α. […] The Specific specific composition information is was shown in S3 Table. […] However, the mechanism of saikosaponin D causing liver injury still remained unclear.
(§1) To further and fully elucidating the mechanism of the liver injury caused by the representative compounds from urate-lowering Chinese herbs, we chose the p38α inhibitor, SB203580 to verify our findings. Seemingly, the ALT, AST, ALP, and LDH activities of each group decreased to varying degrees under the influence of inhibitor. The specific composition information was shown in S2 Table. […] The Specific specific composition information is was shown in S4 Table.

[2] = MTT assay, cell viability of L-02 cells; settings: human, L-02 (L02) normal hepatic cells, L-02, MTT, 24 h, read-out: cells viabilityrate
Protocol: (§2) The normal hepatic cell (L02) cell lines were obtained from the National Infrastructure of Cell Line Resources (Chinese Academy of Medical Sciences, Beijing, China), and maintained in Dulbecco’s modified Eagle’s medium (DMEM, 10-013-CVR) supplemented with 10% fetal bovine serum (FBS, Hyclone), 1% penicillin and streptomycin (PS, 100 IU/ml penicillin, 100 μg/ml streptomycin, Mediatech, 30-002-CI). All cells were incubated in a humidified atmosphere at 37°C with 5% CO2.
(§3) L-02 cells were trypsinized by 0.25% trypsin after reaching the confluence of 70–80% and plated in 96-well plates at the density of 1.6 × 10^3 […]. And L-02 cells were cultured for 24 hours in vitro before exposure to varying concentrations of different representative compounds with liver injury for further incubating in another 24 hours. Then, 20 μl of 0.25 mg/ml3-(4,5-dimethylthiazol-2-yl)-2,5-diphenyltetrazolium bromide (MTT)-tetrazolium salts (Sigma-Aldrich Corp., St. Louis, MO, USA) in PBS was added to each hole in 96-well plates. After 4 hours of incubation, the formazan crystals were dissolved by 150μl Dimethyl Sulphoxide (DMSO), and shocked to dissolve thoroughly, then the cell viability was measured by MTT method at 570 nm. All experiments were repeated in triplicate independently.

[3] = test system: L-02 cells; experiment: MTT assay, cell viability of L-02 cells
Protocol: as §2, §3

[4] = test system: L-02 cells; experiment: Biochemical indicators of hepatotoxicity (ALT, AST, LDH, ALP activity) of L-02 cells, without and with p38 inhibitor SB203580
Protocol: as §2
To determine how potential liver injury-compounds affected biochemical indicators of L-02 cells, we investigated the activities of AST, ALT, LDH and ALP in cell migration capacity under the different representative compounds conditions (representative compounds group), the inhibitor conditions (inhibitor group), and the negative control. For these experiments, three replicates were made for each concentration of the different representative compounds with liver injury, and each group was established three holes and cultured in 6 times repeatedly. […] Subsequently, the supernatant extraction of L02 cells was collected and centrifuged to detect the activities of AST, ALT, LDH, and ALP by chromatometry method.
as §1, with “Seemingly, the ALT, AST, ALP, and LDH activities of each group decreased to varying degrees under the influence of inhibitor.” left out

[5] = S2 Table, L-02, 1000μmol/L+inhibitor (SB203580)
[6] = S2 Table, L-02, 1000μmol/L, no inhibitor
[7] = S2 Table, L-02, 2000μmol/L+inhibitor (SB203580)
[8] = S2 Table, L-02, 2000μmol/L, no inhibitor
[9] = Table 5, L-02 supernatant, 24 h, 1000μmol/L
[10] = Table 5, L-02 supernatant, 24 h, 2000μmol/L
[11] = S2 Table, L-02, 5μmol/L+inhibitor (SB203580)
[12] = S2 Table, L-02, 5μmol/L, no inhibitor
[13] = S2 Table, L-02, 10μmol/L+inhibitor (SB203580)
[14] = S2 Table, L-02, 10μmol/L, no inhibitor
[15] = Table 5, L-02 supernatant, 24 h, 5μmol/L
[16] = Table 5, L-02 supernatant, 24 h, 10μmol/L
[17] = Table 5, L-02 supernatant, 24 h, 15μmol/L

SMILES: O=C(O)[C@H]1O[C@@H](Oc2cc3oc(-c4ccccc4)cc(=O)c3c(O)c2O)[C@H](O)[C@@H](O)[C@@H]1O [Baicalin]
- ratios of p-p38α/p38α expression compared with the blank groups, in words ([1]; L-02, 10μmol/L diosgein, 2000μmol/L baicalin, 60μmol/L terandrine, 6μmol/L evodiamine): increased
- p-p38α/p38α ([1]; S3 Table, L-02, 24 hours of incubation, 1000μmol/L): 1.24±0.29
- p-p38α/p38α ([1]; S3 Table, L-02, 24 hours of incubation, 2000μmol/L): 2.06±0.66
- p-p38α/p38α ([1]; S4 Table, L-02, 24 hours, 1000μmol/L+inhibitor (SB203580)): 0.76±0.15
- p-p38α/p38α ([1]; S4 Table, L-02, 24 hours, 1000μmol/L, no inhibitor): 1.25±0.24
- p-p38α/p38α ([1]; S4 Table, L-02, 24 hours, 2000μmol/L+inhibitor (SB203580)): 0.26±0.03
- p-p38α/p38α ([1]; S4 Table, L-02, 24 hours, 2000μmol/L, no inhibitor): 1.08±0.6
- viability at 24 h, 1000 μmol/L ([2]; 1000 μmol/L): 154 ± 21.1%
- viability at 24 h, 2000 μmol/L ([2]; 2000 μmol/L): 98.6 ± 16.5%
- effect on L-02 (MTT), in words ([3]; dose of 2000μmol/L): trend of proliferative effects
- ALP [4, 5]: 0.70± 0.05 King's unit /100ml
- ALT [4, 5]: 1.88± 0.20 U/L
- AST [4, 5]: 4.12± 0.26 U/L
- LDH [4, 5]: 778.83± 14.65 U/L
- ALP [4, 6]: 0.86± 0.06 King's unit /100ml
- ALT [4, 6]: 2.24± 0.30 U/L
- AST [4, 6]: 4.45± 1.09 U/L
- LDH [4, 6]: 699.84± 33.81 U/L
- ALP [4, 7]: 0.85± 0.06 King's unit /100ml
- ALT [4, 7]: 2.27± 0.32 U/L
- AST [4, 7]: 4.38± 0.84 U/L
- LDH [4, 7]: 981.04± 3.87 U/L
- ALP [4, 8]: 0.92± 0.13 King's unit /100ml
- ALT [4, 8]: 2.01± 0.20 U/L
- AST [4, 8]: 4.48± 0.13 U/L
- LDH [4, 8]: 840.44± 32.45 U/L
- ALP [4, 9]: 2.03±0.44 King's unit /100ml
- ALT [4, 9]: 4.45±1.09 U/L
- AST [4, 9]: 690.76±33.24 U/L
- LDH [4, 9]: 0.81±0.10 U/L
- ALP [4, 10]: 1.94±0.21 King's unit /100ml
- ALT [4, 10]: 4.48±0.13 U/L
- AST [4, 10]: 824.64±39.22 U/L
- LDH [4, 10]: 0.84±0.18 U/L

SMILES: O=c1c2ccccc2nc2n1CCc1c-2[nH]c2ccccc12 [Rutaecarpine]
- viability at 24 h, 5 μmol/L ([2]; 5 μmol/L): 92.7 ± 3.74%
- viability at 24 h, 10 μmol/L ([2]; 10 μmol/L): 81.3 ± 6.29%
- viability at 24 h, 15 μmol/L ([2]; 15 μmol/L): 80.5 ± 3.9%
- cell viability of L-02 (MTT), in words ([3]; dose of 5μmol/L): good potency inhibitor against the cell viability
- ALP [4, 11]: 1.13± 0.12 King's unit /100ml
- ALT [4, 11]: 5.01± 0.13 U/L
- AST [4, 11]: 9.25± 1.09 U/L
- LDH [4, 11]: 1193.32± 3.90 U/L
- ALP [4, 12]: 1.63± 0.03 King's unit /100ml
- ALT [4, 12]: 6.00± 0.43 U/L
- AST [4, 12]: 10.33± 0.74 U/L
- LDH [4, 12]: 1105.81± 85.95 U/L
- ALP [4, 13]: 1.39± 0.28 King's unit /100ml
- ALT [4, 13]: 5.63± 0.09 U/L
- AST [4, 13]: 10.52± 0.97 U/L
- LDH [4, 13]: 1217.18± 41.25 U/L
- ALP [4, 14]: 1.07± 0.14 King's unit /100ml
- ALT [4, 14]: 5.67± 0.12 U/L
- AST [4, 14]: 9.81± 0.74 U/L
- LDH [4, 14]: 1155.13± 35.72 U/L
- ALP [4, 15]: 5.77±0.54 King's unit /100ml
- ALT [4, 15]: 9.90±0.99 U/L
- AST [4, 15]: 1075.18±91.40 U/L
- LDH [4, 15]: 1.62±0.04 U/L
- ALP [4, 16]: 5.67±0.12 King's unit /100ml
- ALT [4, 16]: 8.81±1.85 U/L
- AST [4, 16]: 1127.68±56.72 U/L
- LDH [4, 16]: 1.54±0.36 U/L
- ALP [4, 17]: 5.54±0.57 King's unit /100ml
- ALT [4, 17]: 9.33±1.85 U/L
- AST [4, 17]: 1000.00±61.27 U/L
- LDH [4, 17]: 1.71±0.16 U/L
